The text below walks through data of BindingDB's records for doi:10.7270/Q26112HR (n/a, 1997).

Molecules are shown by their SMILES.

The Ki is a measure of affinity in units of concentration, obtained from inhibition or displacement. A lower Ki goes with higher affinity.

For this experiment, the target named is D(3) dopamine receptor (Homo sapiens, UniProt P35462). Kind of experiment: Ability to displace [125I]-sulpiride from human Dopamine receptor D3, expressed in CHO cells.
Chain of D(3) dopamine receptor (P35462 as listed by the source): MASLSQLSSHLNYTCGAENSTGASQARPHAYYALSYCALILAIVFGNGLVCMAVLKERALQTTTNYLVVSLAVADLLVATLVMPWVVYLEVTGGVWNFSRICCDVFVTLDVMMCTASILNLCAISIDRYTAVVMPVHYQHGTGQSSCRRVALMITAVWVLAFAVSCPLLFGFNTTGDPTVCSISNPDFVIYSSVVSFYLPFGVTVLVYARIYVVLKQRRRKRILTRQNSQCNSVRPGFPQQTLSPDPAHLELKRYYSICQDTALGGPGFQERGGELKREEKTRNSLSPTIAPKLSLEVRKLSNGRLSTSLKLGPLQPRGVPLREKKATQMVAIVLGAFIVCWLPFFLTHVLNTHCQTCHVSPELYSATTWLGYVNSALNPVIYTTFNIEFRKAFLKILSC

With `CCS(=O)(=O)c1ccc(OC)c(-c2ccc(CN3CCCCCC3c3ccccc3)[nH]2)c1` (stereo unspecified), the Ki was 1.3 nM.
